Where “and” joins values, the source holds several entries; their conditions need not be identical. Equal values may be shown once.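 Dose response: 5 concentrations. Exposure: 48 h. Format: 96-well plates. Endpoint: linear interpolation; highest concentration if not reached. GI50 marks 50% less growth. TGI marks complete inhibition of growth.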
Legend:
Experiment in all cases: NCI anticancer screen, dose series, 48 h
OVCAR-5 ovarian = test system: OVCAR-5 ovarian
A549 NSCLC = test system: A549 NSCLC
SF-268 CNS = test system: SF-268 CNS
RPMI-8226 leukemia = test system: RPMI-8226 leukemia
CAKI-1 renal = test system: CAKI-1 renal
MDA-MB-231 breast = test system: MDA-MB-231 breast
SF-539 CNS = test system: SF-539 CNS
HCT-116 colon = test system: HCT-116 colon
K-562 leukemia = test system: K-562 leukemia
MCF7 breast = test system: MCF7 breast

| SMILES | GI50 (OVCAR-5 ovarian) | TGI (OVCAR-5 ovarian) | GI50 (A549 NSCLC) | TGI (A549 NSCLC) | GI50 (SF-268 CNS) [µM] | TGI (SF-268 CNS) [µM] | GI50 (RPMI-8226 leukemia) | TGI (RPMI-8226 leukemia) | GI50 (CAKI-1 renal) | TGI (CAKI-1 renal) | GI50 (MDA-MB-231 breast) [µM] | TGI (MDA-MB-231 breast) [µM] | GI50 (SF-539 CNS) | TGI (SF-539 CNS) | GI50 (HCT-116 colon) [µM] | TGI (HCT-116 colon) | GI50 (K-562 leukemia) | TGI (K-562 leukemia) | GI50 (MCF7 breast) | TGI (MCF7 breast) |
| --- | --- | --- | --- | --- | --- | --- | --- | --- | --- | --- | --- | --- | --- | --- | --- | --- | --- | --- | --- | --- |
| COc1ccc(C2CC(c3ccc(OC)c(OC)c3)=NN2C(=O)c2cc(OC)c(OC)c(OC)c2)cc1 (stereo not given) | 9.26 µM | > 100 µM | 2.88 µM | > 100 µM | 5.06 | > 100 | 4.27 µM | > 100 µM | 0.473 µM | > 24.9 µM | 3.09 | > 100 | 1.36 µM | > 21.7 µM | 2.23 | > 100 µM | 1.2 µM | > 100 µM | 0.647 µM | > 100 µM |
| Cc1nn(-c2ccccc2)c2ncc3c(c12)C(=O)N(Cc1ccccc1)C3=O | > 100 µM | > 100 µM | 5.25 µM | > 100 µM | 7.66 | 66.5 | 3.61 µM | 31.8 µM | 2.43 µM | 5.97 µM | 5.11 | 50.2 | 12.2 µM | 56.7 µM | 1.21 | 6.67 µM | 3.73 µM | 41.9 µM | > 100 µM | > 100 µM |
| CCCCCCn1c(=N)n(CC(O)COc2cccc(C)c2)c2ccccc21 (stereo not given) | 4.01 µM | 15.1 µM | 3.47 µM | 13.3 µM | 3.9 | 13.9 | 1.98 µM | 4.56 µM | 2.89 µM | 10.6 µM | 2.2 | 6.44 | 2.2 µM | 4.43 µM | 1.36 | 2.89 µM | 2.07 µM | 5.28 µM | 1.76 µM | 3.55 µM |
| CCOC(=O)c1ccccc1NC(c1ccccc1)c1ccc2cccnc2c1O (stereo not given) | 8.64 µM | > 100 µM | 3.3 µM | > 100 µM | 3.14 | 29 | 3.06 µM | > 100 µM | 3.05 µM | > 100 µM | 5.59 | 72.7 | 2.52 µM | 10.2 µM | 3.41 | 80.1 µM | 3.34 µM | > 100 µM | 2.98 µM | 45 µM |
| COc1cc2c(cc1Nc1nc(Nc3ccsc3C(N)=O)c3cc[nH]c3n1)N(C(=O)CN(C)C)CCC2 | 0.109 µM | 3.66 µM | 0.636 µM | 3.92 µM | 1.15 | 10.6 | 1.24 µM | 6.56 µM | 3.64 µM | 10.2 µM | 1.01 | 4.63 | 0.983 µM | 4.16 µM | 0.458 | 3.79 µM | 0.875 µM | 13.7 µM | 0.00343 µM | > 25 µM |
| C[CH2][Ge]1([CH2]C)[CH2]CC2(CCN(CCCN(C)C)C2)C[CH2]1 | 1.84 µM and 2.45 µM | 3.8 µM and 5.19 µM | 1.44 µM and 2.35 µM | 2.93 µM and 4.47 µM | 1.81 | 3.96 | 0.234 µM and 1.47 µM | 0.976 µM and 2.52 µM | 1.61 µM and 3.04 µM | 3.31 µM and 8.49 µM | 1.46 | 2.96 | 1.78 µM and 1.71 µM | 3.54 µM and 3.34 µM | 1.45 | 2.79 µM and 1 µM | 0.237 µM and 1.11 µM | 2.36 µM and 5.13 µM | 0.99 µM and 2.42 µM | 2.69 µM and 4.05 µM |
| CC(C)(O)C1CC(=O)C(C)(C2C(O)CC3(C)C4CC=C5C(CCC(O)C5(C)C)C4(C)C(=O)CC23C)O1 (stereo not given) | – | > 100 µM | – | > 100 µM | – | > 100 | – | > 100 µM | – | > 100 µM | – | > 100 | – | > 100 µM | – | > 100 µM | – | > 100 µM | – | > 100 µM |
| C#Cc1cccc(NC(=O)Nc2cccc(NC(=O)CCl)c2)c1 | 21.9 µM | 63.9 µM | > 82.5 µM | > 82.5 µM | 25.7 | > 82.5 | 12.5 µM | 48.3 µM | > 82.5 µM | > 82.5 µM | 22.9 | 65.2 | 14 µM | 27.8 µM | 20.9 | > 82.5 µM | 22.8 µM | > 82.5 µM | 21.7 µM | > 82.5 µM |
| O=C1/C(=C/c2ccc([N+](=O)[O-])s2)Oc2ccc(Cl)cc21 | 1.53 µM | 3.01 µM | 0.533 µM | 2.45 µM | 0.405 | 1.53 | 0.298 µM | 0.97 µM | 2.05 µM | 6.68 µM | 0.231 | 0.586 | 0.219 µM | 0.583 µM | 0.222 | 0.535 µM | 0.133 µM | 0.909 µM | 0.305 µM | 1.43 µM |
| C[As](C)SCC(COC(=O)c1ccccc1)OC(=O)c1ccccc1 (stereo not given) | 0.556 µM | 2 µM | 1.45 µM | 11.3 µM | 0.344 | 4.42 | 0.0264 µM | 0.357 µM | < 0.0181 µM | 0.0499 µM | 0.463 | 2.97 | 0.271 µM | 0.775 µM | 0.0292 | 0.434 µM | < 0.0205 µM | 1.22 µM | 0.0462 µM | 0.312 µM |
| N#Cc1ccccc1C#C/C=C\C#Cc1cnccn1 | 6.09 µM | > 49.9 µM | 29.8 µM | > 95 µM | 48.9 | > 100 | 2.71 µM | > 21.5 µM | 6.95 µM | > 23.4 µM | 11.1 | 44.1 | 9.5 µM | 46.2 µM | 12.5 | > 100 µM | 4.73 µM | > 100 µM | > 60 µM | > 100 µM |
| O=C(/C=C/CN1CCCCC1)Nc1cc2c(Nc3ccc(F)c(Cl)c3F)ncnc2cc1OCCOC(F)F | 0.406 µM | 13.6 µM | 0.585 µM | 9.92 µM | 1.14 | 4.59 | 1.01 µM | 3.94 µM | < 0.0151 µM | 1.44 µM | 0.882 | 4.88 | 1.12 µM | 3.56 µM | 1.31 | 8.43 µM | 0.715 µM | 8.12 µM | 1.35 µM | 10.3 µM |

From PubChem BioAssay (NCI)
